Measured values: PubChem BioAssay (NCI)
Values joined by “and” are separate entries in the source; they are usually repeats but may differ in a detail not shown here. Equal values may be shown once.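 Method: 48-hour compound exposure of cells in 96-well plates, five concentrations, linear interpolation of endpoints. GI50 marks 50% less growth. Definition used: TGI = concentration required for complete inhibition of growth.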

Key:
Assay in all cases: NCI anticancer screen, dose series, 48 h
BT-549 breast = system: BT-549 breast
COLO 205 colon = system: COLO 205 colon
ACHN renal = system: ACHN renal
MDA-MB-231 breast = system: MDA-MB-231 breast
NCI-H23 lung = system: NCI-H23 lung
OVCAR-5 ovarian = system: OVCAR-5 ovarian
MDA-MB-435 = system: MDA-MB-435
SK-MEL-2 melanoma = system: SK-MEL-2 melanoma
UACC-62 melanoma = system: UACC-62 melanoma
CCRF-CEM leukemia = system: CCRF-CEM leukemia

SMILES	GI50 (BT-549 breast)	TGI (BT-549 breast)	GI50 (COLO 205 colon)	TGI (COLO 205 colon)	GI50 (ACHN renal)	TGI (ACHN renal) [µM]	GI50 (MDA-MB-231 breast)	TGI (MDA-MB-231 breast)	GI50 (NCI-H23 lung)	TGI (NCI-H23 lung)	GI50 (OVCAR-5 ovarian)	TGI (OVCAR-5 ovarian) [µM]	GI50 (MDA-MB-435)	TGI (MDA-MB-435)	GI50 (SK-MEL-2 melanoma)	TGI (SK-MEL-2 melanoma)	GI50 (UACC-62 melanoma)	TGI (UACC-62 melanoma)	GI50 (CCRF-CEM leukemia)	TGI (CCRF-CEM leukemia) [µM]
O=c1cccc(C#CC#CCCCO)o1	7.95 µM	23.6 µM	2.94 µM	7.87 µM	12.4 µM	24.9	1.99 µM	4.82 µM	4.17 µM	11.7 µM	5.57 µM	11.6	4.99 µM	13.6 µM	12.6 µM	> 100 µM	4.42 µM	10.5 µM	5.73 µM	> 100
C=C1CC[C@@H]2[C@](C)(COC(C)=O)[C@H](OC(C)=O)CC[C@@]2(C)[C@@H]1CC(Nc1ccc(S(=O)(=O)Nc2nccs2)cc1)C1=CCOC1=O (stereo partly drawn)	2.43 µM	6.5 µM	3.14 µM	10.5 µM	5.99 µM	18.9	3.31 µM	8.25 µM	10 µM	24.8 µM	4.82 µM	17.6	3.29 µM	12.7 µM	10.6 µM	24.4 µM	1.76 µM	4.42 µM	2.28 µM	6.76
C[C@H]1c2ccccc2CN1CCCOc1cc2c(cc1OCC1CC1)C1(CCCC1)C(N)=N2	4.8 µM	10.8 µM	0.842 µM	1.68 µM	1.8 µM	6.69	1.44 µM	5.21 µM	3.26 µM	10.3 µM	3.6 µM	10.1	1.67 µM	5.76 µM	1.87 µM	6.69 µM	0.925 µM	1.93 µM	1.46 µM	6.82
Cc1oc2c(c1C(=O)N1CC[C@@H](N)C1)C(=O)c1c(c(O)c3ccccc3c1O)C2=O	8.83 µM	22.5 µM	0.643 µM	1.97 µM	0.629 µM	11.1	2.26 µM	9.06 µM	2.61 µM	12.2 µM	5.2 µM	18.9	2.58 µM	10.1 µM	11 µM	23.9 µM	4.46 µM	19.6 µM	1.01 µM	4.33
O=C1c2ccccc2C(=O)N1C1(C(=O)NC2(C(=O)O)CCCC2)CCCC1	–	> 100 µM	–	> 100 µM	–	> 100	–	> 100 µM	–	> 100 µM	–	> 100	–	> 100 µM	–	> 100 µM	–	> 100 µM	–	> 100
Cc1cc(NC(=O)c2cnc(N3CCN(CCOCCOCCOCCOCCC(=O)N[C@H](C(=O)N4C[C@H](O)C[C@H]4C(=O)N[C@@H](C)c4ccc(-c5scnc5C)cc4)C(C)(C)C)CC3)cn2)c2ncccc2c1	1.83 µM	3.69 µM	5.11 µM	> 100 µM	12 µM	> 100	1.98 µM	3.98 µM	3.57 µM	15.8 µM	14.9 µM	50.8	2.25 µM	5.38 µM	3.17 µM	11 µM	1.71 µM	3.36 µM	3.37 µM	> 100
CCOC(=O)C1=C(C)N2C(=NC3=C(CCC/C3=C\c3ccc(Cl)cc3)C2c2ccc(Cl)cc2)S1 (stereo not drawn)	1.53 µM	3.52 µM	2.44 µM	4.65 µM	3.64 µM	33.6	3.06 µM	16.6 µM	2.03 µM	5.26 µM	20.1 µM	> 100	2.93 µM	14.2 µM	19 µM	62.1 µM	3.25 µM	16.8 µM	2.59 µM	7.87
C=CCn1c(=O)c2cnc(Nc3ccc(N4CCN(C)CC4)cc3)nc2n1-c1cccc(C(C)(C)O)n1	0.437 µM and 0.383 µM	6.01 µM and > 6.27 µM	0.311 µM and 0.623 µM	2.41 µM and > 6.7 µM	0.075 µM and 0.226 µM	> 100	1.33 µM and 0.624 µM	27.4 µM and > 7.83 µM	0.218 µM and 0.295 µM	1.27 µM and > 4.86 µM	0.557 µM and 1.05 µM	> 100	0.201 µM and 0.247 µM	0.561 µM and 0.666 µM	0.118 µM and 0.266 µM	0.956 µM and 2.99 µM	1.18 µM and 0.484 µM	20.5 µM and > 10 µM	0.271 µM and 0.294 µM	–
Cn1nnc2c(C(N)=O)ncn2c1=O	–	> 100 µM	–	> 100 µM	–	> 100	–	> 100 µM	–	> 100 µM	–	> 100	–	> 100 µM	–	> 100 µM	–	> 100 µM	–	> 100
CC1(C)CC2=C(Sc3ccccc3N2)C(=O)C1C(=O)C(=O)Nc1cc(Cl)ccc1Cl (stereo not drawn)	–	> 100 µM	–	> 100 µM	–	> 100	–	> 100 µM	–	> 100 µM	–	> 100	–	> 100 µM	–	> 100 µM	–	> 100 µM	–	> 100
C[C@@H]1COCCN1c1cc(-c2ccnn2C)c2ccnc(-c3ccn[nH]3)c2n1	0.0481 µM and 0.0691 µM	0.876 µM and 1.76 µM	0.28 µM and 0.573 µM	5.7 µM and > 23.4 µM	0.0417 µM	0.596	0.223 µM and 0.386 µM	10.7 µM and > 69.9 µM	0.0303 µM and 0.075 µM	–	0.103 µM and 0.193 µM	> 100	0.0984 µM and 0.199 µM	2.89 µM and 5 µM	0.064 µM and 0.161 µM	0.734 µM and 1.85 µM	0.125 µM and 0.163 µM	0.876 µM and 1.3 µM	0.0175 µM and 0.03 µM	> 23.7
COc1cc(/C=C/[N+](=O)[O-])cc(OC)c1OC	2.19 µM	4.57 µM	1.7 µM	3.33 µM	1.83 µM	3.46	1.87 µM	4.86 µM	2.41 µM	6.44 µM	2.09 µM	5.11	2.8 µM	10.2 µM	3.05 µM	7.11 µM	1.72 µM	3.49 µM	3.35 µM	15.4
CC1=C(Cl)C[C@@H](/C(C)=C\Cl)O[C@@]1(O)C(Br)Br	–	79.6 µM	–	88.5 µM	–	75	–	41.7 µM	–	> 100 µM	–	44.2	–	> 100 µM	–	73.8 µM	–	> 100 µM	–	57.5
